PMC11241395 (International Journal of Molecular Sciences, 2024)
“Also recorded” adds a separate entry of the source. Read-outs that look alike come from different tables or passages of the source.

Key:
[1] = test system: SKBR-3, SKOV-3, PC-3, and U-87 cancer cell lines; assay: MTT cytotoxicity assay, four cancer cell lines taken together; type: cell-based, human; conditions: span over the four cancer cell lines
Procedure: (§1) This activity was evaluated in vitro using the standard MTT method (enzymatic reduction of 3-[4,5-dimethylthiazole-2-yl]-2,5-diphenyltetrazolium bromide, MTT, to MTT-formazan) based on a viability assay.
(§2) Cytotoxic activity: Human cancer cells SKBR-3 (human breast cancer cell line) and SKOV-3 (ovarian cancer cell line) were cultured in McCoy’s Modified Medium. Human cancer cells PC-3 (human prostate cancer cell line) were cultured in an F-12K medium. The Human Dermal Fibroblast (HDF) cell line was cultured in Fibroblast Basal Medium. The U-87 cell line was cultured in EMEM medium. Each medium was supplemented with 10% foetal bovine serum, 1% L- glutamine, and 1% penicillin/streptomycin solution. The cell lines were kept in an incubator at 37 °C. All the cell lines and mediums were obtained from the American Type Culture Collection (ATCC) supplied by LGC-Standards (Lomianki, Poland).
(§3) The MTT assay was conducted as described earlier.

[2] = test system: SKOV-3 (human ovarian cystadenocarcinoma); assay: MTT cytotoxicity assay, SKOV-3; type: cell-based; conditions: SK-OV-3, read-out: IC50 (SD), SKOV-3
Procedure: as §1, §2, §3

[3] = test system: SKBR-3 (human breast adenocarcinoma); assay: MTT cytotoxicity assay, SKBR-3; type: cell-based; conditions: SK-BR-3, read-out: IC50 (SD), SKBR-3
Procedure: as §1, §2, §3

[4] = test system: HDF (regular fibroblast cell line); assay: MTT cytotoxicity assay, normal HDF cells; type: cell-based; conditions: Homo sapiens, read-out: IC50 (SD), HDF
Procedure: as §1, §2, §3

[5] = test system: U-87 (human glioblastoma); assay: MTT cytotoxicity assay, U-87; type: cell-based; conditions: read-out: IC50 (SD), U-87
Procedure: as §1, §2, §3

[6] = test system: PC-3 (human prostate carcinoma); assay: MTT cytotoxicity assay, PC-3; type: cell-based; conditions: read-out: IC50 (SD), PC-3
Procedure: as §1, §2, §3

[7] = DPPH radical-scavenging assay; conditions: sample 1.0 mg/mL in DMSO, 30 min, 517 nm; compared with OA (1)
Procedure: The results are presented as % inhibition of the DPPH radical and Trolox equivalent, calculated from the standard curve (Figure 4). Activity assays were performed in eight repetitions.
The 2,2-diphenyl-1-picrylhydrazyl (DPPH) assay was performed according to Garbiec et al. with modifications. Briefly, 25 μL of the sample at a concentration of 1.0 mg/mL dissolved in dimethyl sulfoxide (DMSO) was mixed with 175 μL of DPPH solution (3.9 mg in 50 mL of methanol). The reaction mixture was shaken and incubated in the dark at room temperature for 30 min. The control sample contained 25 μL of DMSO and 175 μL of DPPH solution. Absorbance was measured at 517 nm. The inhibition of the DPPH radical by the sample was calculated according to the following formula: DPPH-scavenging activity (%) = ((AC − AS)/AC) × 100% where AC is the absorbance of the control and AS is the absorbance of the sample.
The results were presented as % inhibition of the DPPH radical and Trolox equivalent, calculated from the standard curve. Activity assays were performed in 8 repetitions.

melting point [°C]	SMILES	IC50 ([1]; Homo sapiens) [µM]	IC50 [2] [µM]	IC50 [3] [µM]	IC50 ([4]; HDF) [µM]	IC50 [5] [µM]	IC50 [6] [µM]	IC50 [4] [µM]	DPPH radical inhibition expressed as Trolox equivalent [7]	IC50 [1] [µM]
	CC1(C)CC[C@]2(C(=O)O)CC[C@]3(C)C(=CC[C@@H]4[C@@]5(C)CC[C@H](O)C(C)(C)[C@@H]5CC[C@]43C)[C@@H]2C1 [1 (OA), Oleanolic acid, reference compound]	18 to 19	18.8	19.6	~25	18.2				
	CC1(C)CC[C@]2(C(=O)OCCCCCCCCOC(=O)[C@]34CCC(C)(C)CC3C3=CCC5[C@@]6(C)CC[C@H](O)C(C)(C)C6CC[C@@]5(C)[C@]3(C)CC4)CC[C@]3(C)C(=CCC4[C@@]5(C)CC[C@H](O)C(C)(C)C5CC[C@]43C)C2C1 (stereo partly shown) [Compound 2j]	9.81 to 10.7	10.3	9.99		10.7	9.81	16		
	CC1(C)CC[C@]2(C(=O)OCCCCCCCOC(=O)[C@]34CCC(C)(C)CC3C3=CCC5[C@@]6(C)CC[C@H](O)C(C)(C)C6CC[C@@]5(C)[C@]3(C)CC4)CC[C@]3(C)C(=CCC4[C@@]5(C)CC[C@H](O)C(C)(C)C5CC[C@]43C)C2C1 (stereo partly shown) [Compound 2i]	3.06 to 4.58	3.68	3.46		3.06	3.16	5.39		
	CC1(C)CC[C@]2(C(=O)OCOC(=O)[C@]34CCC(C)(C)CC3C3=CCC5[C@@]6(C)CC[C@H](O)C(C)(C)C6CC[C@@]5(C)[C@]3(C)CC4)CC[C@]3(C)C(=CCC4[C@@]5(C)CC[C@H](O)C(C)(C)C5CC[C@]43C)C2C1 (stereo partly shown) [Compound 2a]	3.06 to 4.58	3.89	3.96		3.32	3.38	6.56	by far the highest activity; also recorded: significantly higher	
	CC1(C)CC[C@]2(C(=O)OC/C=C\COC(=O)[C@]34CCC(C)(C)CC3C3=CCC5[C@@]6(C)CC[C@H](O)C(C)(C)C6CC[C@@]5(C)[C@]3(C)CC4)CC[C@]3(C)C(=CCC4[C@@]5(C)CC[C@H](O)C(C)(C)C5CC[C@]43C)C2C1 (stereo partly shown) [Compound 2e]		2.09	2.61		2.74	2.27	2.68		
	CC1(C)CC[C@]2(C(=O)OCCCCCCOC(=O)[C@]34CCC(C)(C)CC3C3=CCC5[C@@]6(C)CC[C@H](O)C(C)(C)C6CC[C@@]5(C)[C@]3(C)CC4)CC[C@]3(C)C(=CCC4[C@@]5(C)CC[C@H](O)C(C)(C)C5CC[C@]43C)C2C1 (stereo partly shown) [Compound 2h]		5.39	6.02		5.87	5.34	17.3		
	CC1(C)CC[C@]2(C(=O)OCCCCCCCCCCCCOC(=O)[C@]34CCC(C)(C)CC3C3=CCC5[C@@]6(C)CC[C@H](O)C(C)(C)C6CC[C@@]5(C)[C@]3(C)CC4)CC[C@]3(C)C(=CCC4[C@@]5(C)CC[C@H](O)C(C)(C)C5CC[C@]43C)C2C1 (stereo partly shown) [Compound 2n]	4.79 to 8.22	7.41	6.79		6.51	6.96	7.3		
	CC1(C)CC[C@]2(C(=O)OCCCOC(=O)[C@]34CCC(C)(C)CC3C3=CCC5[C@@]6(C)CC[C@H](O)C(C)(C)C6CC[C@@]5(C)[C@]3(C)CC4)CC[C@]3(C)C(=CCC4[C@@]5(C)CC[C@H](O)C(C)(C)C5CC[C@]43C)C2C1 (stereo partly shown) [Compound 2c]	4.79 to 8.22	8.22	7.64		7.46	7.4	18.9		
	CC1(C)CC[C@]2(C(=O)OCCCCOC(=O)[C@]34CCC(C)(C)CC3C3=CCC5[C@@]6(C)CC[C@H](O)C(C)(C)C6CC[C@@]5(C)[C@]3(C)CC4)CC[C@]3(C)C(=CCC4[C@@]5(C)CC[C@H](O)C(C)(C)C5CC[C@]43C)C2C1 (stereo partly shown) [Compound 2d]		1.56	1.12		1.2	1.64	2.95		
183 to 185	CC1(C)CC[C@]2(C(=O)OCOC(=O)[C@]34CCC(C)(C)CC3C3=CCC5[C@@]6(C)CC[C@H](O)C(C)(C)C6CC[C@@]5(C)[C@]3(C)CC4)CC[C@]3(C)C(=CCC4[C@@]5(C)CC[C@H](O)C(C)(C)C5CC[C@]43C)C2C1 (stereo partly shown) (hydrate or solvate) [Compound 2a]									
	CC1(C)CC[C@]2(C(=O)OCCCCCCCCCCCOC(=O)[C@]34CCC(C)(C)CC3C3=CCC5[C@@]6(C)CC[C@H](O)C(C)(C)C6CC[C@@]5(C)[C@]3(C)CC4)CC[C@]3(C)C(=CCC4[C@@]5(C)CC[C@H](O)C(C)(C)C5CC[C@]43C)C2C1 (stereo partly shown) [Compound 2m]	3.06 to 4.58	4.58	3.93		4.25	3.91	7.43		
	CC1(C)CC[C@]2(C(=O)OCCCCCCCCCCOC(=O)[C@]34CCC(C)(C)CC3C3=CCC5[C@@]6(C)CC[C@H](O)C(C)(C)C6CC[C@@]5(C)[C@]3(C)CC4)CC[C@]3(C)C(=CCC4[C@@]5(C)CC[C@H](O)C(C)(C)C5CC[C@]43C)C2C1 (stereo partly shown) [Compound 2l]	18.4	18.4	18.7		18.7	18.4	36.3		18.7
	CC1(C)CC[C@]2(C(=O)OCCCCCOC(=O)[C@]34CCC(C)(C)CC3C3=CCC5[C@@]6(C)CC[C@H](O)C(C)(C)C6CC[C@@]5(C)[C@]3(C)CC4)CC[C@]3(C)C(=CCC4[C@@]5(C)CC[C@H](O)C(C)(C)C5CC[C@]43C)C2C1 (stereo partly shown) [Compound 2g]	4.79 to 8.22	5.16	5.21		5.32	5.8	3.37		
	CC1(C)CC[C@]2(C(=O)OC/C=C/COC(=O)[C@]34CCC(C)(C)CC3C3=CCC5[C@@]6(C)CC[C@H](O)C(C)(C)C6CC[C@@]5(C)[C@]3(C)CC4)CC[C@]3(C)C(=CCC4[C@@]5(C)CC[C@H](O)C(C)(C)C5CC[C@]43C)C2C1 (stereo partly shown) [Compound 2f]	4.79 to 8.22	4.79	5.09		4.91	5.11	2.78	highest level of antioxidant activity; also recorded: significantly higher	
	CC1(C)CC[C@]2(C(=O)OCCCCCCCCCOC(=O)[C@]34CCC(C)(C)CC3C3=CCC5[C@@]6(C)CC[C@H](O)C(C)(C)C6CC[C@@]5(C)[C@]3(C)CC4)CC[C@]3(C)C(=CCC4[C@@]5(C)CC[C@H](O)C(C)(C)C5CC[C@]43C)C2C1 (stereo partly shown) [Compound 2k]	4.79 to 8.22	6.89	6.93		7.34	6.93	16.8		
	CC1(C)CC[C@]2(C(=O)OCCOC(=O)[C@]34CCC(C)(C)CC3C3=CCC5[C@@]6(C)CC[C@H](O)C(C)(C)C6CC[C@@]5(C)[C@]3(C)CC4)CC[C@]3(C)C(=CCC4[C@@]5(C)CC[C@H](O)C(C)(C)C5CC[C@]43C)C2C1 (stereo partly shown) [Compound 2b]	4.79 to 8.22	6.49	6.67		6.59	6.43	11.2	highest level of antioxidant activity; also recorded: significantly higher	
